Common to all, as to experiment: NCI anticancer screen, dose series, 48 h
Experiment [1] relates to A498 renal.
Experiment [2] relates to OVCAR-3 ovarian.
Experiment [3] deals with SK-MEL-28 melanoma.
Experiment [4] deals with HT29 colon.
The subject of experiment [5] is K-562 leukemia.
In experiment [6] the test system is NCI-H522 lung.
The test system of experiment [7] is TK-10 renal.
In experiment [8] the test system is RXF 393 renal.
In experiment [9] the test system is U251 CNS.
Experiment [10] has as its system HOP-92 NSCLC.

The record followed here is PubChem BioAssay (NCI).

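The compound was tested at five concentrations on cells cultured in 96-well plates, with a 48-hour exposure period. GI50 is the concentration that inhibits growth by half. TGI denotes the concentration required for complete inhibition of growth.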

Turning to `CC(=O)Nc1ccc2[nH]c(C(=O)N3CC(CCl)c4c3cc([N+](=O)[O-])c3ccccc43)cc2c1` (stereo not given), the TGI is 4.06 µM in experiment [1]; more than 100 µM in experiment [2]; more than 100 µM in [3]; more than 100 µM in experiment [4]; more than 45.8 µM in [5]; 6.61 µM in experiment [6]. Also, the TGI was more than 100 µM in experiment [7], 32.7 µM in [8], more than 100 µM in experiment [9] and more than 43.7 µM in experiment [10].

For the compound `O=C(N/N=C\c1ccc(N(CCCl)CCCl)cc1[N+](=O)[O-])c1cccnc1`, the GI50 in experiment [1], in experiment [2], in experiment [3], in experiment [4], in [5] and in experiment [6] was more than 100 µM throughout. Besides, the GI50 in experiment [7], in [8], in experiment [9] and in experiment [10] was more than 100 µM in each case. Besides, the TGI in [1], in experiment [2], in experiment [3], in experiment [4], in [5] and in [6] was more than 100 µM throughout. In addition, the TGI in experiment [7], in [8], in experiment [9] and in experiment [10] was more than 100 µM in each case.

Consider `O=C(/C=C/c1cccc(Oc2ccccc2)c1)NCc1ccc(C(=O)NCCc2ccccc2)cc1`, for which the TGI in [1], in experiment [2], in experiment [3], in experiment [4], in experiment [5] and in experiment [6] was more than 100 µM in each case. Also, the TGI was more than 100 µM in experiment [7], 61.1 µM in [8], more than 100 µM in experiment [9] and more than 100 µM in experiment [10].

On to `COC(=O)c1ccc(C)cc1CC1Cc2ccc(C)cc2C1=O` (stereo not given), for which the TGI in experiment [1] came out at 9.19 µM; in experiment [2], 25.3 µM; in experiment [3], 76.7 µM; in [4], 11.1 µM; in experiment [5], 10.5 µM; in experiment [6], 5.48 µM. Also, the TGI in experiment [7] is 46.8 µM; in experiment [8], 28.8 µM; in experiment [9], 16.3 µM; in [10], 61.4 µM.

Take `COC(=O)c1c(O)ccc2[nH]c3c(O)c4ccccc4cc3c12`: the TGI was more than 100 µM in experiment [1]; 31.6 µM in [2]; 76.4 µM in experiment [3]; more than 100 µM in experiment [4]; more than 100 µM in experiment [5]; 53.6 µM in experiment [6]. Also, the TGI in experiment [7] is more than 100 µM; in experiment [8], more than 100 µM; in experiment [9], more than 100 µM; in experiment [10] it was 61.8 µM.

Turning to `COc1ccccc1NC(=O)CC(=O)N1N=C(N2c3ccccc3Sc3ccccc32)CC1c1ccccc1` (stereo not given), the TGI in experiment [1], in experiment [2], in [3], in [4], in [5] and in [6] was more than 100 µM throughout. Also, the TGI in experiment [7], in experiment [8], in [9] and in [10] was more than 100 µM in each case.

Regarding `CCCCCCCCCCCC[C@@H](O)[C@H]1CCC([C@H](O)CCCCC(=O)CCCCCCCC2=C[C@H](C)OC2=O)O1` (stereo not given in full), the TGI in experiment [1], in experiment [2], in experiment [3], in experiment [4], in experiment [5] and in experiment [6] was more than 50 µM in each case. The TGI is more than 50 µM in [7], more than 30.2 µM in experiment [8], more than 50 µM in [9] and more than 50 µM in [10].

As for `C=C1C(O)C[C@H](OC(C)=O)[C@]2(C)C1C(OC(C)=O)[C@]1(C(C)(C)O)CC(O)C(C)=C1[C@@H](OC(=O)c1ccccc1)C2OC(C)=O` (stereo not given in full), the TGI in [1], in [2], in experiment [3], in experiment [4], in experiment [5] and in [6] was more than 10 µM in each case. In addition, the TGI in experiment [7], in experiment [8], in experiment [9] and in [10] was more than 10 µM in each case.

With `O=c1[nH]cc(Cl)c(=O)[nH]1`, the TGI in experiment [1], in experiment [2], in [3], in experiment [4], in experiment [5] and in experiment [6] was more than 100 µM each time. For the same compound, the TGI in [7], in experiment [8], in [9] and in experiment [10] was more than 100 µM each time.

Regarding `CCOC(=O)C(Cc1c[nH]c2cc([N+](=O)[O-])ccc12)NS(=O)(=O)c1ccc2ccccc2c1` (stereo not given), the TGI in experiment [1] was determined as 80 µM; in [2], 31.5 µM; in experiment [3], 32.1 µM; in experiment [4], 31 µM; in experiment [5], 39.1 µM; in [6] it was 30.4 µM. The TGI was 74.3 µM in [7], 37.8 µM in experiment [8], 32.9 µM in experiment [9] and 51.6 µM in experiment [10].

For `CC(=O)Oc1ccc2c(c1)CC[C@@H]1C2[C@@H](O[N+](=O)[O-])C[C@@]2(C)C1CC[C@@H]2O[N+](=O)[O-]` (stereo not given in full), the TGI in [1] stood at 32.8 µM; in experiment [2] it was 28.5 µM; in experiment [3] it was 28.7 µM; in [4], 30.2 µM; in [5] it was 32.6 µM; in experiment [6], 25.4 µM. Besides, the TGI amounted to 35.7 µM in experiment [7], 23.7 µM in experiment [8], 27.5 µM in experiment [9] and 23.5 µM in [10].
